Assays:
[1] = molecular target: T1, human neutrophil cathepsin G (Homo sapiens, UniProt P08311); experiment: Enzyme-catalyzed hydrolysis assay, cathepsin G (chromogenic substrate Suc-Ala-Ala-Pro-Phe-pNa); assay type: biochemical; conditions: 70 nM enzyme, 5 mM substrate, pH 7.4, 37° C., 30 minutes; read-out: IC50 (μM) CatG
T1 construct: human neutrophil cathepsin G (Athens Research and Technology); purchased Athens Research and Technology; host or cells: human neutrophils (from the enzyme's name)
T1 sequence (P08311 21-243 limits assumed): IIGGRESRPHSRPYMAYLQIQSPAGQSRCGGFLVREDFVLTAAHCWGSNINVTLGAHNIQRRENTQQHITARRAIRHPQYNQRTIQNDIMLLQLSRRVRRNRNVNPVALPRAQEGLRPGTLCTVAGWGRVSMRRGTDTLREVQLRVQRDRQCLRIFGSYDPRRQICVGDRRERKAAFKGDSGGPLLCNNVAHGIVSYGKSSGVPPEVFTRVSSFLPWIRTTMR
Experimental: (§1) Enzyme-catalyzed hydrolysis rates were measured spectrophotometrically using human neutrophil cathepsin G (Athens Research and Technology) or human skin chymase (Cortex Biochem), a chromogenic substrate (Suc-Ala-Ala-Pro-Phe-pNa) (Bachem) in aqueous buffer (100 mM Hepes, 500 mM NaCl, pH 7.4 for catG; 450 mM Tris, 1800 mM NaCl, pH 8.0 for chymase), and a microplate reader (Molecular Devices). […] Percent inhibition was calculated by comparing the initial reaction slopes of the samples without inhibitor to those with inhibitor. IC50 values were determined using a four parameter fit logistics model. The term “NT” indicates a compound that was not tested.

human skin chymase = molecular target: T2, human skin chymase (Homo sapiens, UniProt P23946); experiment: Enzyme-catalyzed hydrolysis assay, chymase (chromogenic substrate Suc-Ala-Ala-Pro-Phe-pNa); assay type: biochemical; conditions: 10 nM enzyme, 0.7 mM substrate, pH 8.0, 37° C., 30 minutes
T2 construct: human skin chymase (Cortex Biochem); purchased Cortex Biochem; host or cells: human skin (from the enzyme's name)
T2 sequence (P23946 22-247): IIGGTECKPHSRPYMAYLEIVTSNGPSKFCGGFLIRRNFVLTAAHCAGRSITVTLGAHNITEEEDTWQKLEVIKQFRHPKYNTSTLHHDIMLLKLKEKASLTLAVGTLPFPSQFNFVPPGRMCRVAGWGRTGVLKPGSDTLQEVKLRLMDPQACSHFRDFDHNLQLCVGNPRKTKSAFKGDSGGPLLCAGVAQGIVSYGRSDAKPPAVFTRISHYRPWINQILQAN
Experimental: as §1

Compound	IC50 [1] [µM]	IC50 (human skin chymase) [µM]
COc1ccc(C2CCN(C(=O)c3cc4ccccc4cc3C(=O)C(c3cccc4ccccc34)P(=O)(O)O)CC2)cc1 (centres unmarked) [Compound 12, [2-[3-[[4-(4-methoxyphenyl)-1-piperidinyl]carbonyl]-2-naphthalenyl]-1-(1-naphthalenyl)-2-oxoethyl]-phosphonic acid]	0.179 ± 0.038	0.0073 ± 0.0017
CN(C)c1ccc(C=CC(=O)N2CCC(N(C)C(=O)c3cc4ccccc4cc3C(=O)C(c3cccc4ccccc34)P(=O)(O)O)CC2)cc1 (centres unmarked) [Compound 13, [2-3-[[[1-[(2E)-3-[4-(dimethylamino)phenyl]-1-oxo-2-propenyl]-4-piperidinyl]methylamino]carbonyl]-2-naphthalenyl]-1-(1-naphthalenyl)-2-oxoethyl]-phosphonic acid]	0.064 ± 0.008	0.004
COP(=O)(O)C(C(=O)c1cc2ccccc2cc1C(=O)N(C)C1CCN(C(=O)c2ccc3ccccc3c2)CC1)c1cccc2ccccc12 (centres unmarked) [Compound 23, [2[3-[[methyl[1-(2-naphthalenylcarbonyl)-4-piperidinyl]amino]carbonyl]-2-naphthalenyl]-1-(1-naphthalenyl)-2-oxoethyl]-phosphonic acid methyl ester]	0.67	0.416
CN(C(=O)c1cc2ccccc2cc1C(=O)C(c1ccccc1)P(=O)(O)O)C1CCN(C(=O)c2ccc3ccccc3c2)CC1 (centres unmarked) [Compound 11, [2-[3-[[methyl[1-(2-naphthalenylcarbonyl)-4-piperidinyl]amino]carbonyl]-2-naphthalenyl]-2-oxo-1-phenylethyl]-phosphonic acid]	4.9 ± 2.8	0.032
O=C(NC1CCN(C(=O)c2ccc3ccccc3c2)CC1)c1cc2ccccc2cc1C(=O)C(c1cccc2ccccc12)P(=O)(O)O (centres unmarked) [Compound 30, [1-(1-naphthalenyl)-2-[3-[[[1-(2-naphthalenylcarbonyl)-4-piperidinyl]amino]carbonyl]-2-naphthalenyl]-2-oxoethyl]-phosphonic acid]	0.59 ± 0.04	0.0158 ± 0.0008
COc1cccc(C2CCN(C(=O)c3cc4ccccc4cc3C(=O)C(c3cccc4ccccc34)P(=O)(O)O)CC2)c1 (centres unmarked) [Compound 14, [2-[3-[[4-(3-methoxyphenyl)-1-piperidinyl]carbonyl]-2-naphthalenyl]-1-(1-naphthalenyl)-2-oxoethyl]-phosphonic acid]	0.23 ± 0.03	0.01 ± 0.001
[2-[3-[[(1-acetyl-4-piperidinyl)methylamino]carbonyl]-2-naphthalenyl]-1-(1-naphthalenyl)-2-oxoethyl]-phosphonic acid [Compound 26]	0.096 ± 0.018	0.015 ± 0.001
CN(C(=O)c1cc2ccccc2cc1C(=O)C(c1cccc2ccccc12)P(C)(=O)O)C1CCN(C(=O)c2ccc3ccccc3c2)CC1 (centres unmarked) [Compound 32, methyl[2-[3-[[methyl[1-(2-naphthalenylcarbonyl)-4-piperidinyl]amino]carbonyl]-2-naphthalenyl]-1-(1-naphthalenyl)-2-oxoethyl]-phosphinic acid]	0.86 ± 0.03	0.31
[2-[3-[(cyclohexylmethylamino)carbonyl]-2-naphthalenyl]-1-(1-naphthalenyl)-2-oxoethyl]-phosphonic acid [Compound 17]	0.098 ± 0.026	0.0072 ± 0.0015
CN(C(=O)c1cc2ccccc2cc1C(=O)C(c1cccc2ccccc12)P(=O)(O)O)C1CC=C(c2ccccc2)CC1 (centres unmarked) [Compound 29, [2-[3-[[methyl(4-phenyl-3-cyclohexen-1-yl)amino]-carbonyl]-2-naphthalenyl]-1-(1-naphthalenyl)-2-oxoethyl]-phosphonic acid]	0.15 ± 0.03	0.0082 ± 0.0028
CN(CC12CC3CC(CC(C3)C1)C2)C(=O)c1cc2ccccc2cc1C(=O)C(c1cccc2ccccc12)P(=O)(O)O (centres unmarked) [Compound 28, [2-[1-[[methyl(tricyclo[3.3.1^3,7]dec-1-ylmethyl)amino]carbonyl]-2-naphthalenyl]-1-(1-naphthalenyl)-2-oxoethyl]-phosphonic acid]	0.4 ± 0.09	0.036 ± 0.011
CN(C(=O)c1cc2ccccc2cc1C(=O)C(c1cccc2ccccc12)P(=O)(O)O)C1CCC(c2ccccc2)CC1 (centres unmarked) [Compound 1, [2-[3-[[methyl(4-phenylcyclohexyl)amino]carbonyl]-2-naphthalenyl]-1-(1-naphthalenyl)-2-oxoethyl]-phosphonic acid]	0.083 ± 0.014	0.0053 ± 0.0019
CC1CCC(N(C)C(=O)c2cc3ccccc3cc2C(=O)C(c2cccc3ccccc23)P(=O)(O)O)CC1 (centres unmarked) [Compound 27, [2-[3-[[methyl(4-methylcyclohexyl)amino]carbonyl]-2-naphthalenyl]-1-(1-naphthalenyl)-2-oxoethyl]-phosphonic acid]	0.07 ± 0.01	0.0051 ± 0.0022
O=C(c1cc2ccccc2cc1C(=O)N1CCC(CCc2ccccc2)C1)C(c1cccc2ccccc12)P(=O)(O)O (centres unmarked) [Compound 25, [1-(1-naphthalenyl)-2-oxo-2-[3-[[3-(2-phenylethyl)-1-pyrrolidinyl]carbonyl]-2-naphthalenyl]ethyl]-phosphonic acid]	0.156 ± 0.028	0.0097 ± 0.0035
CN(C(=O)c1cc2ccccc2cc1C(=O)C(c1cccc2ccccc12)P(=O)(O)O)C1CCN(C(=O)/C=C/c2ccccc2)CC1 (centres unmarked) [Compound 6, [2-[3-[[methyl[1-[(2E)-1-oxo-3-phenyl-2-propenyl]-4-piperidinyl]amino]carbonyl]-2-naphthalenyl]-1-(1-naphthalenyl)-2-oxoethyl]-phosphonic acid]	0.067 ± 0.014	0.0035 ± 0.0015
[2-[3-[[[1-[(6-hydroxy-2-naphthalenyl)carbonyl]-4-piperidinyl]methylamino]carbonyl]-2-naphthalenyl]-1-(1-naphthalenyl)-2-oxoethyl]-phosphonic acid [Compound 24]	0.078 ± 0.015	0.0035 ± 0.0013
O=C(NC1CCN(C(=O)c2cc3ccccc3cc2C(=O)C(c2cccc3ccccc23)P(=O)(O)O)CC1)c1ccc2ccccc2c1 (centres unmarked) [Compound 34]	0.09 ± 0.04	0.007 ± 0.001
O=C(c1cc2ccccc2cc1C(=O)N1CCC(c2ccccc2)CC1)C(c1cccc2ccccc12)P(=O)(O)O (centres unmarked) [Compound 7, [1-(1-naphthalenyl)-2-oxo-2-[3-[(4-phenyl-1-piperidinyl)carbonyl]-2-naphthalenyl]ethyl]-phosphonic acid]	0.21 ± 0.05	0.008 ± 0.022
O=C(c1cc2ccccc2cc1C(=O)N1CCC2(CC1)C(=O)NCN2c1ccccc1)C(c1cccc2ccccc12)P(=O)(O)O (centres unmarked) [Compound 8, [1-(1-naphthalenyl)-2-oxo-2-[3-[(4-oxo-1-phenyl-1,3,8-triazaspiro[4.5]dec-8-yl)carbonyl]-2-naphthalenyl]ethyl]-phosphonic acid]	0.13 ± 0.01	0.0074 ± 0.0022
[2-[3-[[[1-[(6-methoxy-2-naphthalenyl)carbonyl]-3-pyrrolidinyl]methylamino]carbonyl]-2-naphthalenyl]-1-(1-naphthalenyl)-2-oxoethyl]-phosphonic acid [Compound 3]	0.068 ± 0.019	0.072 ± 0.008
CN(C(=O)c1cc2ccccc2cc1C(=O)C(c1csc2ccc(Cl)cc12)P(=O)(O)O)C1CCN(C(=O)c2ccc3ccccc3c2)CC1 (centres unmarked) [Compound 33, [1-(5-chlorobenzo[b]thien-3-yl)-2-[3-[[methyl[1-(2-naphthalenylcarbonyl)-4-piperidinyl]amino]carbonyl]-2-naphthalenyl]-2-oxoethyl]-phosphonic acid]	0.121 ± 0.007	0.001
O=C(c1cc2ccccc2cc1C(=O)N1CCC(c2ccccc2)C1)C(c1cccc2ccccc12)P(=O)(O)O (centres unmarked) [Compound 19, [1-(1-naphthalenyl)-2-oxo-2-[3-[(3-phenyl-1-pyrrolidinyl)carbonyl]-2-naphthalenyl]ethyl]-phosphonic acid]	0.238 ± 0.03	0.022 ± 0.062
CN(C(=O)c1cc2ccccc2cc1C(=O)C(c1cccc2ccccc12)P(=O)(O)O)C1CCN(C(=O)c2ccc3cc(Br)ccc3c2)CC1 (centres unmarked) [Compound 4]	0.09 ± 0.02	0.0039 ± 0.0001
[2-[3-[[[4-(1,1-dimethylethyl)cyclohexyl]methylamino]carbonyl]-2-naphthalenyl]-1-(1-naphthalenyl)-2-oxoethyl]-phosphonic acid [Compound 22]	0.14 ± 0.04	0.009 ± 0.023
O=C(c1cc2ccccc2cc1C(=O)N1CCC(c2nc3ccccc3s2)CC1)C(c1cccc2ccccc12)P(=O)(O)O (centres unmarked) [Compound 16, [2-[3-[[4-(2-benzothiazolyl)-1-piperidinyl]carbonyl]-2-naphthalenyl]-1-(1-naphthalenyl)-2-oxoethyl]-phosphonic acid]	0.19 ± 0.02	0.0085 ± 0.0023

— patent US8703957B2 (Janssen Pharmaceutica NV, priority 2001, dated 2014)
